This is an account of results in US7258984B2, “Compositions and methods for identifying agents which regulate autolytic processes in bacteria” (priority 2001, dated 2007).

Common to all, as to assay type: cell-based, Staphylococcus aureus
The test system of test [1] is S. aureus sarA mutant. Nature of the test: TRITON X-100 sensitivity, sarA mutant. The procedure: (§1) TRITON® X-100 sensitivity was determined for rat, sarA, and rat-sarA double-mutant strains.
(§2) The effect of TRITON® X-100 on growing cells was determined by diluting cultures grown overnight to an OD650 nm of 0.1 in TSB with varying concentrations of TRITON® X-100. Cells were incubated at 37° C. with shaking and the optical density was recorded hourly for seven to eight hours.
(§3) TRITON® X-100-induced autolysis assays were conducted by diluting cultures grown overnight to an OD650 nm of 0.05 in TSB containing 1 M NaCl. Cells were allowed to grow at 37° C. with shaking until an OD650 nm of 0.7 was reached. Cells were harvested, washed twice with ice cold water and then resuspended in the same volume of 0.05 M Tris-HCl, pH 7.2, containing 0.05% TRITON® X-100. Cells were incubated at 30° C. with shaking and lysis was determined by measuring absorbance at OD600 nm at 30 minutes intervals.

The test system of test [2] is S. aureus rat-sarA double-mutant. Nature of the test: TRITON X-100-induced cell lysis, rat-sarA double mutant. The note with it: compared with single mutants. Here is the method: as §1, §2, §3
Test [3] relates to S. aureus rat mutant. Nature of the test: TRITON X-100 sensitivity, rat mutant. The procedure:
as §1, §2, §3

Test [4] relates to S. aureus rat mutant. Nature of the test: Penicillin sensitivity assay (growth curve, OD650 nm), rat mutant. The settings on record: 200 ng/ml (subinhibitory) added at OD650 nm of 0.5, mid-log phase. The procedure:
(§4) Rat plays a role in regulating autolytic activity of S. aureus. […] Furthermore, inactivation of the rat locus renders the S. aureus bacteria sensitive to lysis upon growth beyond the mid-log phase. To evaluate whether the cell lysis of the rat mutant was additive to the effect of a subinhibitory concentration of penicillin, 200 ng/ml of penicillin was added to a growing culture of the rat mutant at an OD650 nm of 0.5, corresponding to the mid-log phase. […] This finding is consistent with the additive effect of penicillin upon the lytic propensity of the rat mutant late in the growth cycle. […] In comparison to the parental strain, the rat mutant with subinhibitory concentrations of penicillin has a 3-4 log kill than the parental strain with antibiotics.
(§5) Penicillin sensitivity assays were conducted by diluting rat mutant cultures grown overnight to an OD650 nm of 0.05 in TSB containing the appropriate antibiotics to maintain selection. Cultures were grown at 37° C. with shaking to reach exponential phase (OD650 nm=0.5). Penicillin G was added to a concentration of […]. Optical densities at 650 nm were measured every hour for eight to nine hours.

The subject of test [5] is S. aureus complemented strain (ACL2531). Nature of the test: Penicillin-induced lysis, complemented strain (ACL2531). The note with it: 100 μg penicillin (3× MIC). Here is the method: (§6) Similar to the rat transposon mutant, the rat deletion mutant was unable to grow to an OD650 nm of 1.7 (early-stationary).
Penicillin sensitivity assays were conducted by diluting rat mutant cultures grown overnight to an OD650 nm of 0.05 in TSB containing the appropriate antibiotics to maintain selection. Cultures were grown at 37° C. with shaking to reach exponential phase (OD650 nm=0.5). […] Optical densities at 650 nm were measured every hour for eight to nine hours.

Test [6] deals with S. aureus rat deletion mutant. Nature of the test: Penicillin-induced lysis, rat deletion mutant (ACL2530). The note with it: 100 μg penicillin (3× MIC). The procedure: as §6, §5
For test [7], the system named is wild-type S. aureus. Nature of the test: Penicillin sensitivity assay (growth curve, OD650 nm), wild-type strain. The settings on record: 200 ng/ml (subinhibitory) added at OD650 nm of 0.5, mid-log phase. Here is the method: as §4, §5
Test [8] concerns S. aureus rat mutant. Nature of the test: Plating of antibiotic-treated cultures on agar plates without antibiotic selection (kill). The note with it: subinhibitory concentrations of penicillin; plated on agar without antibiotic selection. The procedure:
as §4

Take TRITON® X-100: the “TRITON X-100 concentration at which sensitivity was displayed” value in test [1] and in test [3] was at least 0.01% each time. Moreover, the “TRITON X-100-induced cell lysis” value in test [2] is “more severe defect”.
For penicillin, the “optical density as the growth cycle progressed after addition of penicillin” value is “further reduction in optical density” in test [4] and “no increase in optical density” in test [7]. Moreover, the “lysis in the presence of penicillin” value in test [5] is “behaved like wild-type”; in test [6], “readily lysed”. Further, the “kill of rat mutant compared with the parental strain with antibiotics” value in test [8] is 3-4 log.
